Assay results as given in PMC6148764, “Consensus design for improved thermostability of lipoxygenase from Anabaena sp. PCC 7120” (BMC Biotechnology, 2018).

Assays:
Experiment in all cases: hydroperoxide formation at […] nm, spectrophotometer, initial rate
Assay type in all cases: biochemical
Conditions in all cases: Tris-HCl pH 9.0, 30 °C
Ana-rLOX [1] = target: T1, Ana-rLOX (Nostoc sp. PCC 7120 = FACHB-418, UniProt Q8YK97, N448D)
T1 construct: gene all8020

Ana-rLOX [2] = target: T2, Ana-rLOX (Nostoc sp. PCC 7120 = FACHB-418, UniProt Q8YK97, S755T)
T2 construct: gene all8020
T2 sequence (Q8YK97 319-773 S755T): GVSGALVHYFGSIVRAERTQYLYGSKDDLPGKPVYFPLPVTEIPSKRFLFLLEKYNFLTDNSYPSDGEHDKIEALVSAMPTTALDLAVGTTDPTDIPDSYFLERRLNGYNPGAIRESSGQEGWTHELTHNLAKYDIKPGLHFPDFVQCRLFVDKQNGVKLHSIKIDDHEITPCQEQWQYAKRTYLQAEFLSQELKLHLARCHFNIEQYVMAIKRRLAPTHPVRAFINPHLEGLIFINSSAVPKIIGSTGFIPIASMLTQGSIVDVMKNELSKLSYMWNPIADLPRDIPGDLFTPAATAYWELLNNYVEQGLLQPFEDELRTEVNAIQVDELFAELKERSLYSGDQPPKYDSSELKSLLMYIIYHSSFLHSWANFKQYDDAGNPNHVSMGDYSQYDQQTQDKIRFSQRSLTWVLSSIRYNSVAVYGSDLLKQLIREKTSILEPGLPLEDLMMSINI

Ana-rLOX [3] = target: T3, Ana-rLOX (Nostoc sp. PCC 7120 = FACHB-418, UniProt Q8YK97, N448D/S755Y)
T3 construct: gene all8020
T3 sequence (Q8YK97 319-773 N448D/S755Y): as the sequence (Q8YK97 319-773 S755T) above, with N130D, T437Y counted along it

Ana-rLOX [4] = target: T4, Ana-rLOX (Nostoc sp. PCC 7120 = FACHB-418, UniProt Q8YK97, G578A)
T4 construct: gene all8020
T4 sequence (Q8YK97 319-773 G578A): as the sequence (Q8YK97 319-773 S755T) above, with G260A, T437S counted along it

Ana-rLOX [5] = target: T5, Ana-rLOX (Nostoc sp. PCC 7120 = FACHB-418, UniProt Q8YK97, N448D/G578Q)
T5 construct: gene all8020
T5 sequence (Q8YK97 319-773 N448D/G578Q): as the sequence (Q8YK97 319-773 S755T) above, with N130D, G260Q, T437S counted along it

Ana-rLOX [6] = target: T6, Ana-rLOX (Nostoc sp. PCC 7120 = FACHB-418, UniProt Q8YK97)
T6 construct: gene all8020
T6 sequence (Q8YK97 319-773 limits assumed): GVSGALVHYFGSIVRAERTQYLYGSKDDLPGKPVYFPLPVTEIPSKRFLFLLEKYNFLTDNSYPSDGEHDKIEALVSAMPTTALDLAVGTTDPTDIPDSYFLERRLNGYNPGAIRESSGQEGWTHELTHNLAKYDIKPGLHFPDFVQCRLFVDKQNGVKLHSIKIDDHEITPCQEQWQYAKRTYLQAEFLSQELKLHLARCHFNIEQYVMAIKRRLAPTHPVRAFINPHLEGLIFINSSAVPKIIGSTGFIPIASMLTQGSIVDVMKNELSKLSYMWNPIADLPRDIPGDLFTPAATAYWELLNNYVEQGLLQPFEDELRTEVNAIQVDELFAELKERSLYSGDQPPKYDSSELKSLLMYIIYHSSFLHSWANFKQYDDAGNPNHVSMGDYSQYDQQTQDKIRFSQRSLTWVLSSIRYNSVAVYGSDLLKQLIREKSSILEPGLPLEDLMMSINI

T1 sequence (Q8YK97 319-773 N448D): as the sequence (Q8YK97 319-773 S755T) above, with N130D, T437S counted along it

In the case of `CCCCC/C=C\C/C=C\CCCCCCCC(=O)O` [linoleic acid], the Km (Ana-rLOX [1]) is reported as 30 ± 2.6 µM, the Km (Ana-rLOX [2]) is reported as 56 ± 4.7 µM and the Km (Ana-rLOX [3]) is reported as 15 ± 1.1 µM. It also gave a Km (Ana-rLOX [4]) of 34 ± 2.3 µM, a Km (Ana-rLOX [5]) of 13 ± 1 µM and a Km (Ana-rLOX [6]) of 56 ± 4 µM.
